Data published in patent US6825230B2, “Spiro and dispiro 1,2,4-trixolane antimalarials” (Medicines for Malaria Venture MMV, priority 2002, dated 2004).
In brackets after ≈: the same amount, converted by molar mass. Read-outs that look alike come from different tables or passages of the source.

Columns and labels:
[1] = tested on: chloroquine-resistant K1 strain of P. falciparum; test: In vitro antimalarial semiautomated microdilution assay ([3H]-hypoxanthine incorporation), K1 strain; type: cell-based, Plasmodium falciparum; settings: Plasmodium falciparum
Method in brief: (§1)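 Logit regression analysis yields the fifty percent inhibitory concentration. Compounds are tested by semiautomated microdilution on intraerythrocytic parasites drawn from asynchronous stock cultures, measuring [3H]-hypoxanthine incorporation.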

[2] = tested on: chloroquine-sensitive NF54 strain of P. falciparum; test: In vitro antimalarial semiautomated microdilution assay ([3H]-hypoxanthine incorporation), NF54 strain; type: cell-based, Plasmodium falciparum; settings: Plasmodium falciparum
Method in brief: as §1

[3] = tested on: ANKA strain of P. berghei; test: Single dose STI in vivo screen in infected mice; set-up: species or system Plasmodium berghei; settings: for Survival (days) 10 mg/kg po: single 10 mg/kg po in 3% ethanol and 7% Tween 80; for Survival (days) 10 mg/kg po / Survival (days) 10 mg/kg SSV po / Survival (days) 10 mg/kg sc: untreated 6-7 days; for Activity (%) 10 mg/kg po: single 10 mg/kg po in 3% ethanol and 7% Tween 80 on day 1 post-infection; for Activity (%) 10 mg/kg po / Activity (%) 10 mg/kg SSV po / Activity (%) 10 mg/kg sc / Activity (%) 3 mg/kg SSV po: percent reduction in parasitemia on day 3; for Survival (days) 10 mg/kg SSV po: single 10 mg/kg po in SSV; for Activity (%) 10 mg/kg SSV po: single 10 mg/kg po in standard suspending vehicle (SSV) on day 1 post-infection; for Survival (days) 10 mg/kg sc: single 10 mg/kg sc in 3% ethanol and 7% Tween 80; for Activity (%) 10 mg/kg sc: single 10 mg/kg sc in 3% ethanol and 7% Tween 80 on day 1 post-infection; for Survival (days) 3 mg/kg SSV po / Activity (%) 3 mg/kg SSV po: single 3 mg/kg po in SSV
[4] = chloroquine-resistant K1 strain, 72 h incubation, read-out: IC50 (ng/ml) K1
[5] = chloroquine-sensitive NF54 strain, 72 h incubation, read-out: IC50 (ng/ml) NF54
[6] = K1, 72 h, read-out: IC50 (ng/ml) K1, chloroquine-resistant K1 strain, 72 h incubation
[7] = NF54, 72 h, read-out: IC50 (ng/ml) NF54, chloroquine-sensitive NF54 strain, 72 h incubation

| SMILES | IC50 [1, 4] [ng/mL] | IC50 [2, 5] [ng/mL] | Survival (days) 10 mg/kg po [3] [days] | Activity (%) 10 mg/kg po [3] [%] | Survival (days) 10 mg/kg SSV po [3] [days] | Activity (%) 10 mg/kg SSV po [3] [%] | Survival (days) 10 mg/kg sc [3] [days] | Activity (%) 10 mg/kg sc [3] [%] | IC50 [1, 6] [ng/mL] | IC50 [2, 7] [ng/mL] | Survival (days) 3 mg/kg SSV po [3] [days] | Activity (%) 3 mg/kg SSV po [3] [%] |
| --- | --- | --- | --- | --- | --- | --- | --- | --- | --- | --- | --- | --- |
| O=C(O)c1cn(C[C@H]2CC[C@]3(CC2)OOC2(O3)C3CC4CC(C3)CC2C4)cn1 (stereo partly shown) [OZ225] | 7.3 (≈ 18.8 nM) | > 10 | 5.7 | 0 | 5.7 | 0 | 6.3 | 17 | – | – | – | – |
| CS(=O)(=O)c1ccc([C@H]2CC[C@]3(CC2)OOC2(O3)C3CC4CC(C3)CC2C4)cc1 (stereo partly shown) [OZ178] | – | – | 7.3 | 32 | 7.3 | 23 | 10.0 | 31 | 21 (≈ 50.2 nM) | 27 (≈ 64.5 nM) | – | – |
| COCC(=O)N(C1CCCCC1)C1CCC2(CC1)OOC1(O2)C2CC3CC(C2)CC1C3 (stereo not shown) [OZ174] | – | – | 6.7 | 0 | 7.3 | 15 | 10.3 | 90 | 27 (≈ 62.3 nM) | 34 (≈ 78.4 nM) | – | – |
| O=C(OC[C@H]1CC[C@]2(CC1)OOC1(O2)C2CC3CC(C2)CC1C3)n1ccnc1 (stereo partly drawn) [OZ141, cis-Adamantane-2-spiro-3′-1′,2′,4′-trioxaspiro[4.5]decane-8′-methyl imidazole-1-carboxylate] | – | – | 8.0 | 98 | 8.0 | 97 | 8.7 | 99.89 | 1.7 (≈ 4.38 nM) | 1.9 (≈ 4.89 nM) | – | – |
| O=S(=O)(c1cccc2cccnc12)N1CCC2(CC1)OOC1(O2)C2CC3CC(C2)CC1C3 (stereo not shown) [OZ114, Adamantane-2-spiro-3′-8′-(8′-quinolinesulfonyl)-1′,2′,4′-trioxa-8′-azaspiro[4.5]decane] | – | – | 5.7 | 0 | 6.0 | 0 | 8.7 | 99.64 | 3.7 (≈ 8.1 nM) | 2.2 (≈ 4.82 nM) | – | – |
| CCOC(=O)c1ccc([C@H]2CC[C@]3(CC2)OOC2(O3)C3CC4CC(C3)CC2C4)cc1 (stereo partly shown) [OZ164] | – | – | – | 11 | 5.7 | 0 | – | 7 | 9 (≈ 21.8 nM) | > 10 | – | – |
| NC(=O)C[C@H]1CC[C@]2(CC1)OOC1(O2)C2CC3CC(C2)CC1C3 (stereo partly shown) [OZ243] | – | – | 7.3 | 87 | 8.7 | 97 | 6.3 | 70 | 0.91 (≈ 2.83 nM) | 1.1 (≈ 3.42 nM) | – | – |
| COCC(=O)N[C@H]1CC[C@]2(CC1)OOC1(O2)C2CC3CC(C2)CC1C3 (stereo partly shown) [OZ186] | – | – | 8.0 | 87 | 9.0 | 96 | 8.0 | 67 | > 10 | > 10 | – | – |
| Clc1ccc2c(NCCNC3CCC4(CC3)OOC3(O4)C4CC5CC(C4)CC3C5)ccnc2c1 (stereo not shown) [OZ258] | 5.8 (≈ 12 nM) | 5.2 (≈ 10.7 nM) | 6.0 | 75 | 6.0 | 70 | 10.7 | 99.95 | – | – | – | – |
| c1cc(CN2CCC3(CC2)OOC2(O3)C3CC4CC(C3)CC2C4)ccn1 (stereo not shown) [OZ216, Adamantane-2-spiro-3′-8′-(4′-pyridinylmethyl)-1′,2′,4′-trioxa-8′-azaspiro[4.5]decane] | 0.4 (≈ 1.12 nM) | 0.67 (≈ 1.88 nM) | 6.3 | 62 | 7.7 | 69 | 11.0 | 99.02 | – | – | – | – |
| O=C(O)C1(c2ccccc2)CCC2(CC1)OOC1(O2)C2CC3CC(C2)CC1C3 (stereo not shown) [OZ99] | – | – | 6.3 | 30 | 5.7 | 40 | 6.3 | 36 | 77 (≈ 200 nM) | 27 (≈ 70.2 nM) | – | – |
| COC(=O)c1ncnn1C[C@H]1CC[C@]2(CC1)OOC1(O2)C2CC3CC(C2)CC1C3 (stereo partly shown) [OZ233] | – | – | 7.0 | 69 | 7.7 | 76 | 8.3 | 99.66 | 1.7 (≈ 4.21 nM) | 1.9 (≈ 4.71 nM) | – | – |
| O=C(C[C@H]1CC[C@]2(CC1)OO[C@]1(O2)C2CC3CC(C2)CC1C3)NCCN1CCOCC1 [OZ313] | – | – | – | – | 10.4 | – | – | – | 0.55 (≈ 1.27 nM) | 0.76 (≈ 1.75 nM) | 7.4 | 58 |
| O=C(O)CNC[C@H]1CC[C@]2(CC1)OO[C@]1(O2)C2CC3CC(C2)CC1C3 [OZ309] | – | – | – | – | 8.8 | 99.80 | – | – | 11 (≈ 31.3 nM) | 17 (≈ 48.4 nM) | 7.8 | 86 |
| CC1(C)C2CCC1(CS(=O)(=O)N1CCC3(CC1)OOC1(O3)C3CC4CC(C3)CC1C4)C(=O)C2 (stereo not drawn) [OZ91, Adamantane-2-spiro-3′-8′-[(1′S)-10′-camphorsulfonyl]-1′,2′,4′-trioxa-8′-azaspiro[4.5]decane] | – | – | 5.7 | 20 | 6.0 | 0 | 7.3 | 85 | 1.4 (≈ 2.92 nM) | 0.42 (≈ 0.876 nM) | – | – |
| COC(=O)c1cncn1C[C@H]1CC[C@]2(CC1)OOC1(O2)C2CC3CC(C2)CC1C3 (stereo partly shown) [OZ223] | 4 (≈ 9.94 nM) | > 10 | 7.3 | 89 | 6.3 | 79 | 12.0 | 99.57 | – | – | – | – |
| O=C(NC[C@H]1CC[C@]2(CC1)OOC1(O2)C2CC3CC(C2)CC1C3)c1cccc[n+]1[O-] (stereo partly shown) [OZ270] | 0.85 (≈ 2.05 nM) | 1.3 (≈ 3.14 nM) | 13.7 | 99.17 | 12.3 | 99.47 | 11.3 | 99.81 | – | – | – | – |
| NC(=O)CNC(=O)C[C@H]1CC[C@]2(CC1)OO[C@]1(O2)C2CC3CC(C2)CC1C3 [OZ306] | – | – | – | – | 9.2 | – | – | – | 3.9 (≈ 10.3 nM) | 3.6 (≈ 9.51 nM) | 8.2 | 87 |
| O=C(N1CCCC1)N1CCC2(CC1)OOC1(O2)C2CC3CC(C2)CC1C3 (stereo not shown) [OZ203, Adamantane-2-spiro-3′-8′-(1′-pyrrolidinylcarbonyl)-1′,2′,4′-trioxa-8′-azaspiro[4.5]decane] | – | – | 7.3 | 87 | 8.7 | 99.42 | 9.7 | 99.72 | 3.9 (≈ 10.8 nM) | 6.7 (≈ 18.5 nM) | – | – |
| O=C(O)c1cccc([C@H]2CC[C@]3(CC2)OOC2(O3)C3CC4CC(C3)CC2C4)c1 (stereo partly shown) [OZ198] | – | – | 5.7 | 4 | 6.0 | 6 | 5.7 | 6 | > 10 | > 10 | – | – |
| O=C(C[C@H]1CC[C@]2(CC1)OOC1(O2)C2CC3CC(C2)CC1C3)Nc1nccs1 (stereo partly shown) [OZ217] | 2 (≈ 4.94 nM) | 2 (≈ 4.94 nM) | 7.0 | 67 | 6.0 | 8 | 8.0 | 98 | – | – | – | – |
| O=C(NO)c1ccc([C@H]2CC[C@]3(CC2)OOC2(O3)C3CC4CC(C3)CC2C4)cc1 (stereo partly shown) [OZ183] | – | – | 6.0 | 65 | 6.0 | 19 | 8.3 | 81 | 0.8 (≈ 2 nM) | 2.1 (≈ 5.26 nM) | – | – |
| CC(C)(N)CNC[C@H]1CC[C@]2(CC1)OOC1(O2)C2CC3CC(C2)CC1C3 (stereo partly shown) [OZ287] | 0.49 (≈ 1.34 nM) | 0.83 (≈ 2.28 nM) | – | – | 8.3 | 95 | – | – | – | – | 7.2 | 68 |
